Results published in ChEMBL document CHEMBL1201862, “PubChem BioAssay data set” (2004).
The source made the active and inactive calls.

Experiments:
[1] = target: T1, Epstein-Barr nuclear antigen 1 (Epstein-Barr virus (strain B95-8) (HHV-4) (Human herpesvirus 4), UniProt P03211); experiment: EBNA-1 inhibitors, dose response, biochemical, fluorescence polarization, 1536-well (AID 2381); set-up: species or system human gammaherpesvirus 4;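 also: fluorescence polarization of a Cy5 DNA probe bound by EBNA-1 protein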
T1 sequence (P03211 whole entry): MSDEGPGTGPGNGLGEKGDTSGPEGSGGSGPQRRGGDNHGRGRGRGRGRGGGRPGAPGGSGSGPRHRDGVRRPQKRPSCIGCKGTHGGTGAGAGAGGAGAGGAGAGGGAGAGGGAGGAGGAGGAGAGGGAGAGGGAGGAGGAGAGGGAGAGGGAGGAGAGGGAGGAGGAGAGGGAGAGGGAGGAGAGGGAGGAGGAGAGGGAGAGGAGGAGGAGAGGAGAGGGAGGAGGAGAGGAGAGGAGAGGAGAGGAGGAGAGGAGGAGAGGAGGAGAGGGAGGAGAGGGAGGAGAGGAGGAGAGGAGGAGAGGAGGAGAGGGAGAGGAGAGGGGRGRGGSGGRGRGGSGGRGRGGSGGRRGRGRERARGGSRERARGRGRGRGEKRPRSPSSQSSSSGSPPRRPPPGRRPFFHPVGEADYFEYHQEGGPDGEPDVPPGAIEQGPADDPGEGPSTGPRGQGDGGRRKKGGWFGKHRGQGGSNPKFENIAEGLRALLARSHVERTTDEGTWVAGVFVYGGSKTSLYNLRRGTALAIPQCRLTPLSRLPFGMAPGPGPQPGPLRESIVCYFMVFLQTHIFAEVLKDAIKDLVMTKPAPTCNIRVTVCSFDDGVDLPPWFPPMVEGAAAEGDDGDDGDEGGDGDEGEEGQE

[2] = target: T2, Lytic switch protein BZLF1 (Epstein-Barr virus (strain B95-8) (HHV-4) (Human herpesvirus 4), UniProt P03206); experiment: EBV ZTA inhibitors, dose response, counter-screen for EBNA-1 inhibitor project, biochemical, fluorescence polarization, Epstein-Barr virus, 1536-well (AID 2377); set-up: species or system human gammaherpesvirus 4;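 also: fluorescence polarization of Cy5-labelled ZRE DNA probe bound by purified Zta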
T2 sequence (P03206 whole entry): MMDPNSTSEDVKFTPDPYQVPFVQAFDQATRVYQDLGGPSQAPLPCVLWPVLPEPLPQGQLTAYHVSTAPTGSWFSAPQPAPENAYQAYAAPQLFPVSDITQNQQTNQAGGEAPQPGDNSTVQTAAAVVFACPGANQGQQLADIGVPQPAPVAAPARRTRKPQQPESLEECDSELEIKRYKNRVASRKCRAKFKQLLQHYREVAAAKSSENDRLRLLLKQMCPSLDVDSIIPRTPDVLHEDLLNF

H9c2 = experiment: cells; format: functional, cell-based; settings: Rattus norvegicus, H9c2, Myocardium;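 also: confirmatory concentration-response retest of ultra-high-throughput screening hits for modulation of myocardial damage; cell death induced by hydrogen peroxide oxidative stress; compound pretreatment for 60 min then peroxide exposure for 2 h; potency is for protecting the cells against peroxide damage rather than for killing them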
[3] = A cytotoxicity screen of small molecule inhibitors of the PhoP region in Salmonella typhi identified in the primary screen. [Related pubchem assays: 1850, 1864, 1985 ]; format: functional
[4] = target: Disintegrin and metalloproteinase domain-containing protein 17 (Homo sapiens, UniProt P78536); experiment: ADAM17 protease inhibitors, dose response, counter-screen for ADAM10 exosite inhibitor project, biochemical, quenched FRET substrate (AID 743253)
Disintegrin and metalloproteinase domain-containing protein 17, sequence (P78536 whole entry, the tested form may be a part): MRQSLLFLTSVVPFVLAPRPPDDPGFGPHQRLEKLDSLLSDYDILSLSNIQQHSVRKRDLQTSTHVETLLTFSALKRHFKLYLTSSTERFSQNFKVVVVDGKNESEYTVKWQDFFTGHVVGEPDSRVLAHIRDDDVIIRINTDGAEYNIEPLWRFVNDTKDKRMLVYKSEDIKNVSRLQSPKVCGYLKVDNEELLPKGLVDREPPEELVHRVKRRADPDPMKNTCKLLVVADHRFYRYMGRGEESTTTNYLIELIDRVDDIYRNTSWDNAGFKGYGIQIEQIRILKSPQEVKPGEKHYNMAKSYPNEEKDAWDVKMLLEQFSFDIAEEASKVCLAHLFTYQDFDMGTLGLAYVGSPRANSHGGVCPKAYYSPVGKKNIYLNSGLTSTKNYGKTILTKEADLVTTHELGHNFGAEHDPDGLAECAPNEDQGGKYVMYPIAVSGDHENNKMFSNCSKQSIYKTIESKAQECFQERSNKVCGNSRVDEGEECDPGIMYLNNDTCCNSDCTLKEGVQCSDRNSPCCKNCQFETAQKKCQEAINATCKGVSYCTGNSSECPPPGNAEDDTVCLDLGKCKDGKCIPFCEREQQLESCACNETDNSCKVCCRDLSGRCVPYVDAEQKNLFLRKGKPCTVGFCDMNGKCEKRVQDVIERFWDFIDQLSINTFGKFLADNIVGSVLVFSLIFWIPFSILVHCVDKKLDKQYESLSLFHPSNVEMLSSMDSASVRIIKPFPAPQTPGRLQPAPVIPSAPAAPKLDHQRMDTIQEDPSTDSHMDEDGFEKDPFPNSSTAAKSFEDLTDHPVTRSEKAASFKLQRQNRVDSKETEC

[5] = ADAM10 inhibitors, peptide cleavage, dose response, biochemical, QFRET (AID 743254);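 also: ADAM10 enzyme with the DM2 quenched FRET peptide as substrate; EDANS fluorescence gain as the protease cuts the substrate; inhibitor potency against ADAM10 proteolytic activity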
[6] = target: T3, DNA repair and recombination protein RAD54-like (Homo sapiens, UniProt Q92698); experiment: inhibitors of human RAD54 branch migration, confirmation, biochemical, fluorescence, cherry-picked samples, dose series (AID 651657); format: functional
T3 sequence (Q92698 whole entry): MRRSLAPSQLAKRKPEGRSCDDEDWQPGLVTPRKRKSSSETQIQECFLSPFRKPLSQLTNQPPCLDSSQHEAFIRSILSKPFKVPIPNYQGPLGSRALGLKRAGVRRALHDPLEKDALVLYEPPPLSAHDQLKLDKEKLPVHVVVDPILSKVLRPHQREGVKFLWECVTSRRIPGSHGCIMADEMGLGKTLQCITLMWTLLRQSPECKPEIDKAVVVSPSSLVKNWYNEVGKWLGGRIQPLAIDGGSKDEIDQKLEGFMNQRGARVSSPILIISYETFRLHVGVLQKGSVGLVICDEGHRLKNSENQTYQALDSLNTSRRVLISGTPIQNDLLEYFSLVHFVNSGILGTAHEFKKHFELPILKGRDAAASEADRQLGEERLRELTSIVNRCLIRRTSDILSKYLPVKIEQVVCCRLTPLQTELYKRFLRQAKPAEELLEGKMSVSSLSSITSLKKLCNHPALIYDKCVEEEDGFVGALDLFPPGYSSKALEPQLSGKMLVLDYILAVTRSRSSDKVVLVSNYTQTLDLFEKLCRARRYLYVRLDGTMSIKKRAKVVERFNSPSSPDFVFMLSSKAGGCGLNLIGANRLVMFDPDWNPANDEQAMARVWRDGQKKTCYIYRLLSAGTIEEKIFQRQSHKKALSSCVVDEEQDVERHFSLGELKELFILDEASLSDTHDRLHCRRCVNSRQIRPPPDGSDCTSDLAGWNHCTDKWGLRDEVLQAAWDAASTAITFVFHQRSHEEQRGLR

[7] = target: T4, DNA repair protein RAD52 homolog (Homo sapiens, UniProt P43351); format: functional, biochemical
T4 sequence (P43351 whole entry): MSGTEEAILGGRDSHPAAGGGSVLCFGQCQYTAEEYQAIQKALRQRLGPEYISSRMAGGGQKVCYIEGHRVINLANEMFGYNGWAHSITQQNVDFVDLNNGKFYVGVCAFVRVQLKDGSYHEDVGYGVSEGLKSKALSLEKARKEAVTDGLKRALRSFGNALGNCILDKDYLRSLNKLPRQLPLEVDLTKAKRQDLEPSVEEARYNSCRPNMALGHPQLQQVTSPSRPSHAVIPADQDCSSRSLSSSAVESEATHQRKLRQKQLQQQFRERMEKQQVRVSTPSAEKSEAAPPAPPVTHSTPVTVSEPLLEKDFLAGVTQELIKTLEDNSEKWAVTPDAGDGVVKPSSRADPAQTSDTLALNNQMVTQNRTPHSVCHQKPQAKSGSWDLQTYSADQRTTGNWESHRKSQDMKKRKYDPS

[8] = cytotoxicity toward NIH3T3 fibroblasts, dose response, counter-screen, cell-based, ATP luminescence, mouse fibroblasts (AID 2010); format: functional;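 also: cells exposed to compound for about 90 hours before reading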
[9] = target: Induced myeloid leukemia cell differentiation protein Mcl-1 (Homo sapiens, UniProt Q07820); format: functional
Induced myeloid leukemia cell differentiation protein Mcl-1, sequence (Q07820 whole entry): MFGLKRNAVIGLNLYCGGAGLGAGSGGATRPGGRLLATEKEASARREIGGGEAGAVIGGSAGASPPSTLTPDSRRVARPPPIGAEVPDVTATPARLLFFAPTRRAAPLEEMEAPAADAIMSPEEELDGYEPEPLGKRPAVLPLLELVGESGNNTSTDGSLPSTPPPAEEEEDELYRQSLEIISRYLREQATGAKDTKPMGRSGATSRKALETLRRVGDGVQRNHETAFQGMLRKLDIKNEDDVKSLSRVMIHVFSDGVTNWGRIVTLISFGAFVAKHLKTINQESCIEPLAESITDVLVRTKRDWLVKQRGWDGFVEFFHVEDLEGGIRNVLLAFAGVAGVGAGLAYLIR

[10] = inhibitors of intracellular T. cruzi replication, confirmation, NIH3T3 host cells, beta-gal luminescence (AID 2044); format: functional, cell-based;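 also: intracellular parasites grown in NIH/3T3 mouse fibroblasts as host cells; luminescent beta-galactosidase reporter signal from transgenic T. cruzi replicating inside host cells; inhibitors lower the luminescence signal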
[11] = A Cell Based Secondary Assay To Explore Cytotoxicity of Compounds that Sensitize Mycobacterium Tuberculosis to Beta-Lactam Antibiotics.; format: functional
Estrogen receptor = target: T5, Estrogen receptor (Homo sapiens, UniProt P03372);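 also: potency for inhibiting coactivator peptide recruitment to the receptor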
T5 sequence (P03372 whole entry): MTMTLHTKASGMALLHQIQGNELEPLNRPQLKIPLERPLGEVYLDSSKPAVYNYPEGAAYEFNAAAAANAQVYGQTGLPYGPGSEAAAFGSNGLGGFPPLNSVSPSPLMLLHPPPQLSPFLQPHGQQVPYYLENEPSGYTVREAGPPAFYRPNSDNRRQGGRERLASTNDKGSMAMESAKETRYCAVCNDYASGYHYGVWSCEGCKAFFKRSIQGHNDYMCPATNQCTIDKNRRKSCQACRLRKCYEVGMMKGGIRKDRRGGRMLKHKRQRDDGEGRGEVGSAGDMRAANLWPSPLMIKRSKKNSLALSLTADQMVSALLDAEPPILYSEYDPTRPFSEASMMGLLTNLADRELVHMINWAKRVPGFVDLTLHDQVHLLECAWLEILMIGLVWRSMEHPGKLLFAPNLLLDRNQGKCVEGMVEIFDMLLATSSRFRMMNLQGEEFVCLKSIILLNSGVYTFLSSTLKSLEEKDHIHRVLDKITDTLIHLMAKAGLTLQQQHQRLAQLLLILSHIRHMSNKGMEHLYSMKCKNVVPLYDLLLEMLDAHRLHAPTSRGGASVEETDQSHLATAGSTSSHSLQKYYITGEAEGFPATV

fMet-Leu-Phe receptor = target: T6, fMet-Leu-Phe receptor (Homo sapiens, UniProt P21462); experiment: FPR ligands, dose response (AID 519); format: functional
T6 sequence (P21462 whole entry): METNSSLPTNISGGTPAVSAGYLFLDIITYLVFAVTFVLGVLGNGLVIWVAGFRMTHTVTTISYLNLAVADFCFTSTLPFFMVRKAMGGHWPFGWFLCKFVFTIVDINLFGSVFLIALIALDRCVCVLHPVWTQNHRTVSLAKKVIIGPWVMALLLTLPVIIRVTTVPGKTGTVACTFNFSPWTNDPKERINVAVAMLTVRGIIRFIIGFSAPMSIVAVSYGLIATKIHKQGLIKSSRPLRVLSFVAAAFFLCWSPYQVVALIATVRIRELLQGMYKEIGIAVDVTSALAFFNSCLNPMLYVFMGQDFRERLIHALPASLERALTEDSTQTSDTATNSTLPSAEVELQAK

[12] = HepG2 cell cytotoxicity, dose response, cytotoxicity control, cherry-picked samples (AID 1159577); format: functional, cell-based
[13] = P. falciparum Dd2 growth inhibitors, dose response, SYBR Green, cherry-picked samples (AID 1159567); format: functional, cell-based
[14] = Luminescence Cell-Based Dose Confirmation HTS to Identify Activators of 5'UTR Stem-Loop Driven Alpha-Synuclein mRNA Translation in H4 Neuroglioblastoma Cells. [Related pubchem assays: 1829 (Project Summary), 1814 (Primary HTS)]; format: functional
H4 = experiment: Luminescence Cell-Based Dose Response HTS to Identify Activators of 5'UTR Stem-Loop Driven Prion Protein mRNA Translation in H4 Neuroglioblastoma Cells. [Related pubchem assays: 1829 (Project Summary), 1814 (Primary HTS)]; format: functional; settings: Homo sapiens
[15] = Luminescence Cell-Based Dose Response HTS to Identify Activators of Luciferase Translation or Activity in H4 […] Cells. [Related pubchem assays: 1829 (Project Summary), 1814 (Primary HTS)]; format: functional
[16] = target: T7, Alkaline phosphatase, tissue-nonspecific isozyme (Homo sapiens, UniProt P05186); experiment: human TNAP enzyme inhibitors, SAR follow-up, biochemical, luminescent, dose response (AID 1056)
T7 sequence (P05186 whole entry): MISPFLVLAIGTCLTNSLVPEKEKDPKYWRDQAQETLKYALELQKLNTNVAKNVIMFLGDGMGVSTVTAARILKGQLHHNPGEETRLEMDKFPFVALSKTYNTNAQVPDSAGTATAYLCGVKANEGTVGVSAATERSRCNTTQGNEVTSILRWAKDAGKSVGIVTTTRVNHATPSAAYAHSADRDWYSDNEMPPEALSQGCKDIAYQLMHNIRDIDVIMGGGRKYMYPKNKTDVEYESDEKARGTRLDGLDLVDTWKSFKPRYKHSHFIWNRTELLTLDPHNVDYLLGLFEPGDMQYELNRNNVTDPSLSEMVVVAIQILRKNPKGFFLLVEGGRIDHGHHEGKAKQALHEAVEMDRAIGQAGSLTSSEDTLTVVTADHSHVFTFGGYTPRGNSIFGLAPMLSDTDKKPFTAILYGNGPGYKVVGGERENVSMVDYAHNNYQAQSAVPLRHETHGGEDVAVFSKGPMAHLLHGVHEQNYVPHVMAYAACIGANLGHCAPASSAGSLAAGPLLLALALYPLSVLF

[17] = target: Glyceraldehyde-3-phosphate dehydrogenase (Homo sapiens, UniProt P04406)
Glyceraldehyde-3-phosphate dehydrogenase, sequence (P04406 whole entry): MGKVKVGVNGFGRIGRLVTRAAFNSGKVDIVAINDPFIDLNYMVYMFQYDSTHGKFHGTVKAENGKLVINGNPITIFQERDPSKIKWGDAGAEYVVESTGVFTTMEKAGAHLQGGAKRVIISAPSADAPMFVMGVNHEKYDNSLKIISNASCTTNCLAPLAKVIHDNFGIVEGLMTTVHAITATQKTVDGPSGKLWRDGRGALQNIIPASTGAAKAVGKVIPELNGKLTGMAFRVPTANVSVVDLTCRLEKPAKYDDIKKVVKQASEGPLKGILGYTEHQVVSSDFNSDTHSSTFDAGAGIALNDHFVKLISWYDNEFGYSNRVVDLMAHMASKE

In the case of `C/C(=N\NC(=O)c1c(Br)c(C)nn1C)c1ccc(NC(=O)c2ccoc2C)cc1`, the IC50 [1] is reported as 15.7 µM (not active), the IC50 [2] is reported as > 111 µM (not active) and the IC50 (H9c2) is reported as > 79 µM (inactive). For the same compound, the EC50 [3] was > 50 µM (active).

In the case of `COc1ccc2c(c1)c(CC(=O)Nc1ccc(C(C)=O)cc1)c(C)n2C(=O)c1ccc(Cl)cc1`, the IC50 [4] is reported as > 69.5 µM (inactive) and the IC50 [5] is reported as > 69.5 µM (inactive).

For `CCN(CC)CCN(C(=O)C1=COCCO1)c1nc2c(OC)ccc(OC)c2s1`, the AC50 [6] was 23.5 µM (active) and the AC50 [7] was 8.89 µM (active).

In the case of `Cc1ccc2[nH]c(O)c(N=Nc3nc4ccccc4s3)c2c1`, the EC50 [8] is reported as > 60 µM (not active), the IC50 [9] is reported as 2.11 µM (active) and the EC50 [10] is reported as 3.38 µM (active). The CC50 [11] was 39.6 µM (active).

For `COc1ccc(-c2c/c(=N\c3ccc(C)cc3)c3ccccc3o2)cc1`, the CC50 [11] was > 40 µM (active).

With `Cc1[nH]c2ccc(O)cc2c1CCN` the AC50 [7] was 4.06 µM (active).

In the case of `N#Cc1c(C(F)(F)F)cc(-c2ccccc2)nc1SCc1nc(N)nc(N2CCOCC2)n1`, the IC50 (Estrogen receptor) is reported as > 50 µM (not active), the CC50 [11] is reported as > 40 µM (active) and the Ki (fMet-Leu-Phe receptor) is reported as > 66.7 µM (inactive).

With `COc1ccc(CCNC2CCCCC2)cc1` the EC50 [3] was > 50 µM (active).

With `CC(=O)Nc1ccc(NC(=O)C(C)OC(=O)c2oc3ccccc3c2C)cc1` (centres undefined) the IC50 [1] was 9.16 µM (active) and the IC50 [2] was > 111 µM (not active).

For `COc1ccc2c3c([nH]c2c1)[C@H](CO)N(CC1CC1)CC31CCN(S(=O)(=O)c2cccc(F)c2)CC1`, the AC50 [12] was > 39 µM (inactive) and the AC50 [13] was 4 µM (active).

For `CCOc1cccc(NC(=O)Cn2nc(-c3ccc4c(c3)OCCO4)ccc2=O)c1`, the IC50 [1] was 13.7 µM (not active) and the IC50 [2] was > 111 µM (not active).

With `CCOC(=O)c1ccc(N2Cc3ccccc3/C2=N\C(=O)c2cccc([N+](=O)[O-])c2)cc1` the EC50 [14] was 39.1 µM (active), the EC50 (H4) was 6.09 µM (active) and the EC50 [3] was > 50 µM (active). For the same compound, the EC50 [15] was 12.3 µM (active).

In the case of `CCCCn1cnc2cc(NCc3cccc(OC)c3O)ccc21`, the EC50 [3] is reported as > 50 µM (active).

For `COc1ccc(CN([C@H](CO)CC(C)C)S(=O)(=O)N(Cc2ccccc2)[C@H](CO)CC(C)C)cc1`, the IC50 [4] was > 69.5 µM (inactive) and the IC50 [5] was 5.93 µM (active).

With `Nc1nc(N2C(=O)C3CC=CCC3C2=O)nn1-c1ccccc1` (centres undefined) the IC50 [16] was > 100 µM (inactive), the IC50 (Estrogen receptor) was > 50 µM (not active) and the IC50 [17] was > 100 µM (not active).
